Calls of active or inactive are those of the source. The calls are words filed in the database; no cut-off is given here.
What was measured:
[1] = target: T1, 5-hydroxytryptamine receptor 2C (Rattus norvegicus, UniProt P08909); assay: Inhibition of radiolabeled [3H]-Ketanserin ligand binding to 5-hydroxytryptamine 2C receptor
T1 sequence (P08909 whole entry): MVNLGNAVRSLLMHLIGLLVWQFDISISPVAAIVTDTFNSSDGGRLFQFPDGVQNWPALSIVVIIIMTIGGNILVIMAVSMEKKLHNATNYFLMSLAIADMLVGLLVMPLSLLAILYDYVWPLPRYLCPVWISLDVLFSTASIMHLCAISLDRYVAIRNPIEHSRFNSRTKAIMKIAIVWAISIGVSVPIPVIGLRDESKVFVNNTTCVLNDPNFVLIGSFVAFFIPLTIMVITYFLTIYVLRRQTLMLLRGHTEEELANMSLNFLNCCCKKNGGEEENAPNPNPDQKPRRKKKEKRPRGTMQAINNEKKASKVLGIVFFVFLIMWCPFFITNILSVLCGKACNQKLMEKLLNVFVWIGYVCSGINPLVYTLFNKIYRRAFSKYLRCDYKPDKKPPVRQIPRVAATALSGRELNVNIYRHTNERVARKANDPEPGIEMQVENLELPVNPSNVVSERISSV

[2] = system: NG108-15; assay: Agonist/antagonist activity by observing the uptake of [14C]guanidinium, on the neuroblastoma-glioma hybrid NG108-15 cells; pure agonist; type: functional, cell-based; settings: filed as agonist
[3] = target: T2, Serotonin 3 (5-HT3) receptor (Rattus norvegicus) (UniProt P35563+Q9JJ16); assay: Dose required to stimulate cardiac 5-HT3 receptors evaluated by using von Bezold-Jarisch reflex test in urethane-anesthetized rats after intravenous administration; type: functional, organism-based
[4] = target: T2, Serotonin 3 (5-HT3) receptor (Rattus norvegicus); assay: The stimulation of cardiac 5-HT3 receptors evaluated by using von Bezold-Jarisch reflex test in urethane-anesthetized rats; Partial agonist; type: functional; settings: filed as partial agonist
[5] = system: NG108-15; assay: Effective concentration for uptake of [14C]guanidinium on NG108-15 cells; type: functional, cell-based; settings: Murinae
[6] = target: T3, Serotonin 3 (5-HT3) receptor (Rattus norvegicus, UniProt P35563+Q9JJ16); assay: Inhibition of [3H]BRL-43694 binding to 5-hydroxytryptamine 3 receptor of rat cortical homogenate.
T3 sequence (P35563 whole entry): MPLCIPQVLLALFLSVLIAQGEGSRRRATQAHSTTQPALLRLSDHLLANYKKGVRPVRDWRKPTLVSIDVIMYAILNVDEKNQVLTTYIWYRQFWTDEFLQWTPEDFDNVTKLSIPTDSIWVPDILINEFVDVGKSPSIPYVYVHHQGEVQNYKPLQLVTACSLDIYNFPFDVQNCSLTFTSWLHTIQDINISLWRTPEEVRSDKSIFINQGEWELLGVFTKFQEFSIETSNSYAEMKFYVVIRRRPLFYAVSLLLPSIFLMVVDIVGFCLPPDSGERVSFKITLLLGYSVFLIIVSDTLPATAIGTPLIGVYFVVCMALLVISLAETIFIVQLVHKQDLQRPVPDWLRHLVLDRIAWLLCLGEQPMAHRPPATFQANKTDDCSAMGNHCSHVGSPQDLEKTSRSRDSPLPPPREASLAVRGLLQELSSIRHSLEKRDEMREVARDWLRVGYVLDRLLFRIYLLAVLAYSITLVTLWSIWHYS
T3 sequence (Q9JJ16 whole entry): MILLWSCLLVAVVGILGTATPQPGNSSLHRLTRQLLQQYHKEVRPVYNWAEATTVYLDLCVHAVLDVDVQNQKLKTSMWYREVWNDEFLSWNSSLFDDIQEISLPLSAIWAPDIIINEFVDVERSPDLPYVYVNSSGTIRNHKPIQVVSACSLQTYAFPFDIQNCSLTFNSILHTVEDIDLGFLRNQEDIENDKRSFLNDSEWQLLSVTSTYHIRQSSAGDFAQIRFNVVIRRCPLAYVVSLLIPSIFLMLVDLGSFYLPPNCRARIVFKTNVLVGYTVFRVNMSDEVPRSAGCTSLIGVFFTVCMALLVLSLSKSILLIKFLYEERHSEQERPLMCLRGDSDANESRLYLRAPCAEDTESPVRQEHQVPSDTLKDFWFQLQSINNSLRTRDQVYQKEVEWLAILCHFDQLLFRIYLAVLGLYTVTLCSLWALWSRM

[7] = target: T2, Serotonin 3 (5-HT3) receptor (Rattus norvegicus); assay: The stimulation of cardiac 5-HT3 receptors evaluated by using von Bezold-Jarisch reflex test in urethane-anesthetized rats; partial agonist; type: functional; settings: filed as partial agonist
[8] = target: 5-hydroxytryptamine receptor 1B (Rattus norvegicus, UniProt P28564); assay: Inhibition of radiolabeled [3H]-5-HT ligand binding to 5-hydroxytryptamine 1B receptor
[9] = species: Rattus norvegicus; assay: Inhibitory activity for 5-HT uptake was determined using [3H]- Citalopram; type: functional
[10] = target: 5-hydroxytryptamine receptor 2A (Rattus norvegicus, UniProt P14842); assay: Inhibition of radiolabeled [3H]-Ketanserin ligand binding to 5-hydroxytryptamine 2A receptor
[11] = target: 5-hydroxytryptamine receptor 4 (Rattus norvegicus, UniProt Q62758); assay: Inhibition of radiolabeled [3H]GR-113808 ligand binding to 5-hydroxytryptamine 4 receptor
[12] = target: T4, 5-hydroxytryptamine receptor 1A (Rattus norvegicus, UniProt P19327); assay: Inhibition of radiolabeled [3H]-8-OH-DPAT ligand binding to 5-hydroxytryptamine 1A receptor
T4 sequence (P19327 whole entry): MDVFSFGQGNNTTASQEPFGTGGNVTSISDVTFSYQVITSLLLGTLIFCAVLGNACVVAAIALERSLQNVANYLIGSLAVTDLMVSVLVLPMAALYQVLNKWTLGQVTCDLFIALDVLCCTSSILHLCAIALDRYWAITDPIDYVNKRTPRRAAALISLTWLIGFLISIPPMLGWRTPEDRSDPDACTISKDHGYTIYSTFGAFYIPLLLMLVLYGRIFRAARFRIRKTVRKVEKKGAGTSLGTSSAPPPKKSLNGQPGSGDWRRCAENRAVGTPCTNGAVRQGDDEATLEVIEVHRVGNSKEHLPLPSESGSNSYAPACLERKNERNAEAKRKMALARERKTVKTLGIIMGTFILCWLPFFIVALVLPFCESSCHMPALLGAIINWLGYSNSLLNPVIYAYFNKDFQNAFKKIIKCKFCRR

[13] = target: T1, 5-hydroxytryptamine receptor 2C; assay: Inhibition of radiolabeled [3H]mesulergine ligand binding to 5-hydroxytryptamine 2C receptor
[14] = target: T2, Serotonin 3 (5-HT3) receptor (Rattus norvegicus); assay: The stimulation of cardiac 5-HT3 receptors evaluated by using von Bezold-Jarisch reflex test in urethane-anesthetized rats; pure antagonist; type: functional; settings: filed as antagonist
[15] = target: T2, Serotonin 3 (5-HT3) receptor (Rattus norvegicus); assay: The stimulation of cardiac 5-HT3 receptors evaluated by using von Bezold-Jarisch reflex test in urethane-anesthetized rats; pure agonist; type: functional; settings: filed as agonist
[16] = target: T3, Serotonin 3 (5-HT3) receptor; assay: Inhibition of [3H]BRL-43694 binding to 5-hydroxytryptamine 3 receptor of rat cortical homogenate; Not active at 10000 nm
[17] = system: NG108-15; assay: Agonist/antagonist activity by observing the uptake of [14C]guanidinium, on the neuroblastoma-glioma hybrid NG108-15 cells; Not active at 10000 nm; type: functional, cell-based
[18] = target: T3, Serotonin 3 (5-HT3) receptor; assay: Inhibition of radiolabeled [3H]-Zacopride ligand binding to 5-hydroxytryptamine 3 receptor; type: protein-complex assay
[19] = Potency to cross blood-brain barrier was assessed; type: functional
[20] = target: T2, Serotonin 3 (5-HT3) receptor (Rattus norvegicus); assay: Dose required to stimulate cardiac 5-HT3 receptors evaluated by using von Bezold-Jarisch reflex test in urethane-anesthetized rats; type: functional
[21] = target: T2, Serotonin 3 (5-HT3) receptor (Rattus norvegicus); assay: The stimulation of cardiac 5-HT3 receptors evaluated by using von Bezold-Jarisch reflex test inurethane-anesthetized rats; Pure Antagonist; type: functional; settings: filed as antagonist

5-hydroxytryptamine receptor 1B, sequence (P28564 whole entry): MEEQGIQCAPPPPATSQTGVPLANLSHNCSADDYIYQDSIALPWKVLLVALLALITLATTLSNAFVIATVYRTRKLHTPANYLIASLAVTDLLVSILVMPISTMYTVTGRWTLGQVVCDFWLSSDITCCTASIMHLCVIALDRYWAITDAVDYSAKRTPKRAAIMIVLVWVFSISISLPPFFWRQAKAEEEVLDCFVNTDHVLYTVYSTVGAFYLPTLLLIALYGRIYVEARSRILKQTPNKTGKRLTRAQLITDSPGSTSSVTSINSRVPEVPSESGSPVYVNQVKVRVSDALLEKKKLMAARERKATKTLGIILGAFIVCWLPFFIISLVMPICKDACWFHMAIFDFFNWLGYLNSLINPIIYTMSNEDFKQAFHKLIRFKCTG
5-hydroxytryptamine receptor 4, sequence (Q62758 whole entry): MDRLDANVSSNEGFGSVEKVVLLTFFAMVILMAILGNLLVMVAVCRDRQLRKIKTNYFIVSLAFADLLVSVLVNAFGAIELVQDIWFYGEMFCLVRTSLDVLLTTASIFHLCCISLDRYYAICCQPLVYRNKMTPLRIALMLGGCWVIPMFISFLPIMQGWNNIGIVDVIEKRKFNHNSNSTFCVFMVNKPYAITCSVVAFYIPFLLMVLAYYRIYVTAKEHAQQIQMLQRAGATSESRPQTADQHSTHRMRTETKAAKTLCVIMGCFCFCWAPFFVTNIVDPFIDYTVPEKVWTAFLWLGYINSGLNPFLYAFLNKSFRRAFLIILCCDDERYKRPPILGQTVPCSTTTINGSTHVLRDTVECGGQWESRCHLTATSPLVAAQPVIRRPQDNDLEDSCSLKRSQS
5-hydroxytryptamine receptor 2A, sequence (P14842 whole entry): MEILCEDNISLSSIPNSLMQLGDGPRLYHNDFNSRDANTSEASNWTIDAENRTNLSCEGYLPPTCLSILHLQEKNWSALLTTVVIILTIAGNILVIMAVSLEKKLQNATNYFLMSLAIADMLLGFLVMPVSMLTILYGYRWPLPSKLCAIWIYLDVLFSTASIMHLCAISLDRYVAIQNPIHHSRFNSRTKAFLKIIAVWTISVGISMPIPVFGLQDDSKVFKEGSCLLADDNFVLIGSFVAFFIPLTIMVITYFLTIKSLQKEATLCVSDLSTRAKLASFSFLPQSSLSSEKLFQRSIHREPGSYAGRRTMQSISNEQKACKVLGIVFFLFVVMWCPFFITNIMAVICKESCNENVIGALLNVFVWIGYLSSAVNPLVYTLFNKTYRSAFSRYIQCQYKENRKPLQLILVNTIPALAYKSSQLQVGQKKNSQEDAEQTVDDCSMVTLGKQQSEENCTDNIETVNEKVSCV

Compound: CCC(CC)NC(=O)[C@@H]1C=C2c3cccc4c3c(cn4C)C[C@H]2N(C)C1 [METHSERGIDE]
- IC50 [1]: 3.1 nM

Compound: CN1CCN(c2nc3c(F)cccc3n3cccc23)CC1
- Efficacy [2]: Agonist
- ID50 [3]: 0.12 mg/kg
- Behavior [4]: Partial agonist
- EC50 [5]: 4.7 nM
- IC50 [6]: 9.5 nM

Compound: CCCN1CCN(c2nc3cccc(F)c3n3cccc23)CC1
- Efficacy [2]: Agonist
- ID50 [3]: 0.3 mg/kg
- Behavior [4]: Partial agonist
- EC50 [5]: 73 nM
- IC50 [6]: 82 nM

Compound: CCCN1CCN(c2nc3cc(F)ccc3n3cccc23)CC1
- Efficacy [2]: Agonist
- ID50 [3]: 0.2 mg/kg
- Behavior [7]: Partial agonist
- EC50 [5]: 580 nM
- IC50 [6]: 88 nM

Compound: CN1CCN(c2nc3ccccc3n3cccc23)CC1
- Efficacy [2]: Agonist
- IC50 [8]: 232 nM
- EC50 [5]: 10 nM
- IC50 [9]: 214 nM
- IC50 [10]: 43 nM
- IC50 [11]: > 10 µM
- IC50 [12]: 89 nM
- IC50 [13]: 780 nM

Compound: C=CCN1CCN(c2nc3cccc(F)c3n3cccc23)CC1
- Efficacy [2]: Agonist
- ID50 [3]: 0.075 mg/kg
- Behavior [4]: Partial agonist
- EC50 [5]: 30 nM
- IC50 [6]: 28 nM

Compound: CN1CCN(c2nc3cccc(F)c3n3cccc23)CC1
- Efficacy [2]: Agonist
- ID50 [3]: 0.12 mg/kg
- Behavior [4]: Partial agonist
- EC50 [5]: 6.5 nM
- IC50 [6]: 0.44 nM

Compound: CCN1CCN(c2nc3ccccc3n3cccc23)CC1
- Efficacy [2]: Agonist
- ID50 [3]: 0.1 mg/kg
- EC50 [5]: 8 nM
- IC50 [6]: 9 nM
- Behavior [14]: Antagonist

Compound: CCCN1CCN(c2nc3ccccc3n3cccc23)CC1
- Efficacy [2]: Agonist
- ID50 [3]: 0.24 mg/kg
- Behavior [4]: Partial agonist
- EC50 [5]: 8.5 nM
- IC50 [6]: 51 nM

Compound: CN1CCN(c2cnc3ccccc3n2)CC1
- Efficacy [2]: Agonist
- ID50 [3]: 0.06 mg/kg
- EC50 [5]: 510 nM
- IC50 [6]: 22 nM
- Behavior [15]: Agonist

Compound: c1ccc2nc(N3CCNCC3)ccc2c1 [QUIPAZINE]
- Efficacy [2]: Agonist
- IC50 [8]: 380 nM
- EC50 [5]: 25 nM
- IC50 [9]: 204 nM
- IC50 [6]: 6.2 nM
- IC50 [10]: 1400 nM
- IC50 [11]: > 10 µM
- IC50 [13]: 470 nM

Compound: Fc1cccc2nc(N3CCNCC3)c3cccn3c12
- Efficacy [2]: Agonist
- IC50 [8]: 106 nM
- ID50 [3]: 0.07 mg/kg
- EC50 [5]: 98 nM
- IC50 [9]: 1130 nM
- IC50 [6]: 3.9 nM
- IC50 [10]: 761 nM
- IC50 [11]: > 10 µM
- IC50 [12]: 268 nM
- IC50 [13]: 784 nM
- Behavior [14]: Antagonist

Compound: CN1CCN(c2nc3cc(C(F)(F)F)ccc3n3cccc23)CC1
- IC50 [16]: Not Active
- Efficacy [17]: inactive

Compound: CN1C[C@@H](NS(=O)(=O)N(C)C)C[C@@H]2c3cccc4c3c(cn4C)C[C@H]21 [MESULERGINE]
- IC50 [18]: 2.13 nM

Compound: C=CCN1CCN(c2nc3ccccc3n3cccc23)CC1
- Efficacy [2]: Agonist
- ID50 [3]: 0.18 mg/kg
- Behavior [7]: Partial agonist
- EC50 [5]: 8.2 nM
- IC50 [6]: 11 nM

Compound: Cc1[nH]c2ccc(O)cc2c1CCN
- IC50 [6]: 779 nM

Compound: NCCc1c[nH]c2ccc(O)cc12 [SEROTONIN]
- IC50 [9]: 369 nM

Compound: Fc1ccc2c(c1)nc(N1CCNCC1)c1cccn12
- Efficacy [2]: Agonist
- IC50 [8]: 167 nM
- ID50 [3]: 0.01 mg/kg
- EC50 [5]: 3.5 nM
- IC50 [9]: 203 nM
- IC50 [6]: 5.4 nM
- IC50 [10]: 489 nM
- Ratio [19]: 37.5
- IC50 [11]: > 10 µM
- IC50 [12]: 151 nM
- IC50 [13]: 2800 nM
- Behavior [14]: Antagonist

Compound: C=CCN1CCN(c2nc3cc(F)ccc3n3cccc23)CC1
- Efficacy [2]: Agonist
- ID50 [3]: 0.1 mg/kg
- Behavior [7]: Partial agonist
- EC50 [5]: 76 nM
- IC50 [6]: 22 nM

Compound: CN1CCN(c2nc3cc(F)ccc3n3cccc23)CC1
- Efficacy [2]: Agonist
- IC50 [8]: 371 nM
- ID50 [20]: 0.6 mg/kg
- Behavior [21]: Antagonist
- EC50 [5]: 3 nM
- IC50 [9]: 232 nM
- IC50 [6]: 0.81 nM
- IC50 [10]: 124 nM
- Ratio [19]: 17.5
- IC50 [11]: > 10 µM
- IC50 [12]: 138 nM
- IC50 [13]: 413 nM

— ChEMBL document CHEMBL1130223 (J Med Chem, 1997)
